# Positions of bridges follow the written chain, without caps; N, C: chain ends. Non-standard residues stand in square brackets, D forms with d. Residues, ends and D or L forms follow the SMILES beside them. Leu(3R-O(AcLeu(3R-OH))) = CC(=O)N[C@H](C(=O)O[C@H](C(C)C)[C@H](N)C(=O)O)[C@H](O)C(C)C; NMeT = CN[C@H](C(=O)O)[C@@H](C)O; dPhLac = O=C(O)[C@H](O)Cc1ccccc1; NMeA = CN[C@@H](C)C(=O)O; NMeDha = C=C(NC)C(=O)O
# Key:
# C57BL/6 mice [1] = assay: Tail immersion test (54° C), spinal analgesia; assay type: in vivo, mouse; conditions: for anti-nociceptive response in tail flick (tail immersion) test: subcutaneous
# Source text: (§1) A. Experimental animals. C57BL/6 mice (6-8 weeks old) of both sexes were used. Mice were housed in groups on a 12-h light-dark cycle (6:00 am light cycle; 6:00 pm dark cycle) with food (Teklad Global 16% protein rodent diets; Envigo Inc., WI, USA) and water available ad libitum. Animal groups were compiled to ensure minimization of factors (e.g., weight, sex, and health). Mice were within 20-28 g in weight at start of all studies. All tested groups contained a control group and consisted of male and female mice. Males and females were tested on the same day but at different times so that they were not in the room at the same time. All the experiments were tested during the light cycle between 8:00 am and 3:00 pm to avoid any long-term disruption of sleep cycles. Mice were transferred to the behavioural testing room at least 45 min before the first test to acclimatize. Following behavioural evaluation, animals were killed by CO2 inhalation, followed by cervical dislocation and postmortem decapitation.
# (§2) B. Drug treatments. […] The dose of YM-254890 for subcutaneous injection was taken from previous published studies. The dose of morphine selected for subcutaneous administration (2.5, 5 and 10 mg kg-1) is commonly used in mouse analgesia. For the combined administration of morphine and YM-254890 on thermal anti-nociception, YM-254890 was administered 10 min before the morphine. The latency of response was measured before injection of drugs (baseline latency response) and at different time intervals (post-treatment latency response) after drugs injection.
# (§3) C. Intrathecal injections. Intrathecal (i.t.) administration was performed following the method described previously (Hylden J L et al. “Intrathecal morphine in mice: a new technique.” Eur J Pharmacol (1980) 67:313-316; Li D et al. “Direct Intrathecal Injection of Recombinant Adeno-associated Viruses in Adult Mice.” J Vis Exp (2019)) with slight modifications. All intrathecal injections were performed using a 25 μL Hamilton syringe with a 30-gauge needle. The injection volume was 5 μL for each mouse. […] Each solution was injected without injection cannulae. Intrathecal injections were made into the L5-L6 intervertebral space of unanesthetized mice. The flick of the tail was considered indicative of a successful i.t. administration.
# (2) Tail Immersion test. Anti-nociception induced by YM-254890 or evaluation of morphine's analgesic effects was determined by tail immersion test. The test was performed as previously described (Wang et al. 2019). Individual mice were transferred to experimentation room and restrained using a well-ventilated 50-ml tube with air holes. In order to minimize handling and to facilitate both the drug delivery and testing, each mouse was comfortably positioned in the plastic restrainer tubes with both fore paws and hind paws extending through holes at the bottom of the restrainer. All animals were habituated to restraint 1 h for 3 days prior to behaviour test. […] Once the animal was immobilized (within 25-30 s), two thirds of the entire tail was dipped in water bath heated to 54° C.
# C57BL/6 mice [2] = assay: Hot plate test (52.5° C), anti-nociception; assay type: in vivo, mouse
# Source text: as §1, §2
# D. Intracerebral injections. Intracerebroventricular administration was performed following the method described previously with slight modifications (Haley T J et al. “Pharmacological effects produced by intracerebral injection of drugs in the conscious mouse.” British Journal of Pharmacology and Chemotherapy, (1957) 12:12-15; Narita M et al. “Reduced expression of a novel μ-opioid receptor (MOR) subtype MOR-1B in CXBK mice: Implications of MOR-1B in the expression of MOR-mediated responses.” The European Journal of Neuroscience (2003) 18:3193-3198)). On the day of the drug/vehicle injection or on the day of behavioural test, the mouse was secured at the nape of the neck and head by the investigator's thumb and forefinger, and head of the mouse was held against a V-shaped holder. A 27-gauge hypodermic needle attached with 25 μL. Hamilton microsyringe was inserted perpendicularly into the unilateral injection site into the hole with the depth of 3.5 mm. The injection volume was 4 μL.
# (1) Hot Plate test. Animals were tested for the assessment of anti-nociception and analgesic effects of morphine using a hotplate set to 52.5° C. The assay was performed as described previously (Bannon A W et al. “Models of nociception: Hotplate, tail-flick, and formalin tests in rodents.” In Current Protocols in Neuroscience, Chapter 8: Unit 8.9. Wiley (2007); Wang D et al. “Genetic behavioral screen identifies an orphan anti-opioid system.” Science (2019) 365:1267-1273). Mice were placed in a Plexiglas chamber (16″ tall and 8″ in diameter) on a ceramic plate heated to 52.5° C. and the timer started.
# C57BL/6 mice [3] = tested on: C57BL/6 mice
# Source text: as §1, §2, §3
# [4] = YM-254890 0.5 mg·kg−1 s.c. 10 min before morphine 5 mg/kg s.c.
# [5] = YM-254890 s.c. with morphine 5 mg/kg s.c., all animals
structure (smiles),measurement,setting,value
C=C1C(=O)N[C@@H](C)C(=O)N(C)[C@@H](C)C(=O)N[C@@H]([C@H](OC(=O)[C@@H](NC(C)=O)[C@H](O)C(C)C)C(C)C)C(=O)N(C)[C@@H]([C@@H](C)OC)C(=O)O[C@H](C)[C@H](NC(C)=O)C(=O)O[C@H](Cc2ccccc2)C(=O)N1C [YM-254890] (Ac-T[dPhLac][NMeDha]A[NMeA][Leu(3R-O(AcLeu(3R-OH)))][NMeT](Me); ester 1-C),"effect on morphine analgesia, tail immersion test",C57BL/6 mice [1]; YM-254890 0.25 mg kg-1 s.c. 10 min before morphine 5 mg/kg s.c.,eliminated this effect
same,"effect on morphine analgesia, tail immersion test",C57BL/6 mice [1]; [4],significant enhancement of the anti-nociceptive effects of morphine
same,"time to return to baseline nociception, tail immersion test","C57BL/6 mice [1]; YM-254890 alone, intrathecal, 3.0 and 4.5 nmol",about 2 h
same,"magnitude of anti-nociceptive effect upon increasing the dose, tail immersion test","C57BL/6 mice [1]; YM-254890 alone, intrathecal, 3.0 to 4.5 nmol (ceiling effect)",did not change
same,"anti-nociception in tail immersion test, intrathecal","C57BL/6 mice [1]; YM-254890 alone, intrathecal, doses above 1.5 nmol per injection",significant anti-nociceptive properties
same,anti-nociceptive response in tail flick (tail immersion) test,"C57BL/6 mice [1]; YM-254890 alone, highest dose 1 mg·kg−1",significant anti-nociceptive response
same,anti-nociceptive response in tail flick (tail immersion) test,"C57BL/6 mice [1]; YM-254890 alone, lower doses (0.1, 0.3, 0.5 mg/kg)",no significant difference in nociceptive response
same,"effect on systemic morphine analgesia, tail immersion test",C57BL/6 mice [1]; YM-254890 intrathecal 0.5 nmol (lowest subthreshold dose) 10 min before morphine 2.5 mg/kg s.c.,significantly enhance the anti-nociceptive effects of morphine
same,"dose dependence of enhancement of morphine analgesia, tail immersion test","C57BL/6 mice [1]; YM-254890 intrathecal 0.5, 1.5, 3.0, 4.5 nmol with morphine 2.5 mg/kg s.c.",increased dose dependently until maximizing at the cut-off value for the test
same,"maximal extent and duration of morphine analgesia, tail immersion test","C57BL/6 mice [1]; YM-254890 intrathecal, at each of the doses, with morphine 2.5 mg/kg s.c.",both the maximal extent and duration of the analgesic effects of morphine were increased
same,"effect on opioid-induced analgesia, hotplate test",C57BL/6 mice [2]; YM-254890 0.25 mg·kg−1 s.c. (subthreshold) 10 min before morphine 5 mg/kg s.c.,significantly potentiated anti-nociceptive effects
same,"effect on opioid-induced analgesia, hotplate test",C57BL/6 mice [2]; [4],further enhancement of opioid analgesia
same,"effect on onset timing and duration of opioid analgesia, hotplate test",C57BL/6 mice [2]; YM-254890 0.25 or 0.5 mg·kg−1 s.c. with morphine 5 mg/kg s.c.,no effect on either the onset timing or duration of the opioid analgesia
same,"time of maximal analgesic response after injection, hotplate test","C57BL/6 mice [2]; YM-254890 alone, subcutaneous, 0.5 and 1.0 mg·kg−1",30 min
same,paw withdrawal latencies in hotplate test,"C57BL/6 mice [2]; YM-254890 alone, subcutaneous, higher doses 0.5 and 1.0 mg·kg−1",produced increases in paw withdrawal latencies
same,paw withdrawal latencies in hotplate test,"C57BL/6 mice [2]; YM-254890 alone, subcutaneous, lower doses 0.1 and 0.3 mg·kg−1",No significant effect
same,analgesia in hotplate test after delivery directly into the brain,"C57BL/6 mice [2]; YM-254890 i.c.v. 0.4, 1.2, 4 nmol",dose-dependent increase in both the extent and duration of analgesia
same,"time to reach maximal latencies, hotplate test",C57BL/6 mice [2]; [5],about 30 min
same,"time to recover to baseline nociceptive thresholds, hotplate test",C57BL/6 mice [2]; [5],about 3 h
same,"effect on morphine locomotor-sensitizing effect, open-field test","C57BL/6 mice [3]; YM-254890 0.5 mg/kg s.c. 10 min before morphine 5 mg/kg s.c., 120 min",completely suppressed these effects
same,locomotion in open-field test,"C57BL/6 mice [3]; YM-254890 0.5 mg/kg s.c. with morphine 5 mg/kg s.c., comparable with YM-254890 alone",substantial decrease in locomotion
same,motor activity in open-field test after intrathecal delivery,"C57BL/6 mice [3]; YM-254890 intrathecal 3.0 nmol, alone or in combination with morphine 2.5 mg/kg s.c., 120 min",no significant changes in motor activity

# — patent publication US20250177478A1, “G ALPHA Q/11 INHIBITORS FOR USE AS AN ANALGESIC” (University of Florida Research Foundation, Incorporated, priority 2022, published 2025)
